# Values of other authors as cited in patent US20100035939A1, “PENETRATING CARRIER, ANTI-FUNGAL COMPOSITION USING THE SAME AND METHOD FOR TREATMENT OF DERMATOPHYTES” (priority 2004, published 2010).
# Test system: fungal toenail
structure (smiles),measurement,setting,value
CN(C/C=C/C#CC(C)(C)C)Cc1cccc2ccccc12 [terbinafine],patients with a serious reaction to the drug,"in vivo, po",One in 500
same,reoccurrence of the fungal toenail,"oral administration, in the first year",15%
